Columns and labels:
[1] = biological target: T1, human recombinant NOP receptor (Homo sapiens, UniProt P41146); assay: Stimulation of GTP?S binding on CHOhNOP membranes; assay type: biochemical
T1 construct: expressed in transfected cells; host or cells: CHO cells (CHOhNOP), membranes

[2] = biological target: T2, human recombinant opioid receptor mu (MOP) (Homo sapiens, UniProt P35372); assay: Receptor binding on CHO membranes, [3H]-Diprenorphine; conditions: Table 3; CHO cells; [3H]-Diprenorphine
T2 construct: expressed in transfected cells; host or cells: CHO cells, membranes

[3] = biological target: T3, human recombinant opioid receptor kappa (KOP) (Homo sapiens, UniProt P41145); assay: as above; conditions: Table 3, CHO cells
T3 construct: expressed in transfected cells; host or cells: CHO cells, membranes

mouse vas deferens = assay: Inhibition of the twitch induced by electrical stimulation of mouse vas deferens; assay type: cell-based
Procedure: The compounds were tested in vitro on Hamster oocytes membranes expressing the human recombinant NOP receptor (CHOhNoP) (receptor binding experiments and GTP?S binding stimulation experiments) and on the mouse vas deferens after electrical stimulation.

[4] = Metabolic stability in mouse brain homogenate; assay type: in vitro ADME; conditions: male, Swiss, pH 7.4, mouse brain homogenate, 37° C., mean±standard deviation, read-out: T½ Brain
Procedure: (§1) Plasma and brain tissue samples were obtained from male Swiss mice (Morini, Reggio Emilia, Italy, 25-30 g). The animal, sacrificed by ether anesthesia, was perfused with physiological heparin solution injected through a needle placed in the left ventricle. Blood was then withdrawn and was centrifuged at 14000×g for 2 minutes at room temperature. After separation from the pellet, the plasma was aliquoted and stocked at −80° C. After blood withdrawal, the animal was perfused further with a physiological solution for 2 minutes before brain removal. The brain tissue was homogenized in 5 vol. (w/v) of Tris/HCl (50 mM, pH 7.4, 0° C.) with a ultra-Turrax (Janke Kunkel, Staufen, FRG) 3 times for 15 seconds each. The supernatant obtained by centrifugation (3000×g for 15 min at 4° C.) was decanted and then stocked at −80° C.
(§2) The protein content of the preparations, determined by the Bradford method, as described in Anal. Biochem., 72, 248-254, 1976, was approximately 8 μg/μl for the brain homogenate and 17 μg/μl for the plasma
(§3) An aliquot of 100 μl solution of each peptide (3 mg/500 μl Tris) was incubated (at a final concentration of […]) with brain homogenate or plasma (450 μl) in a total volume of 1 ml, containing Tris/HCl 50 mM pH 7.4 buffer. Incubation of the aliquots was carried out at 37° C. for various periods up to 240 min. At different incubation times, an aliquot of the solution (100 μl) was removed and the degradation was blocked by addition of 4.5% TFA solution (200 μl). After centrifugation (3000 rpm for 15 minutes) an aliquot (100 μl) of supernatant was injected into RP-HPLC. HPLC analysis was performed in a Kromasil 100-5C18 column (4.6×250 mm) using a Beckman System Gold chromatography system equipped with a variable wave length UV detector.
(§4) The experimental conditions for elution included a gradient analysis with water (solvent A) and acetonitrile (solvent B), both containing 0.1% TFA, at a flow rate of 0.7 ml/min. The following protocol was used for gradient analysis, selected on the basis of the physico-chemical characteristics of the analyte: linear gradient from 5% to 40% B in 20 minutes; linear gradient from 40% to 60% B in 5 minutes; linear gradient from 60% to 5% B in 5 minutes. The eluate was monitored at 220 nm. The half life (T1/2) was obtained by linear regression with the least square method, diagramming the peak areas of each derivative as a function of the incubation times, using at least five points for each analysis.

mice [5] = assay: Tail withdrawal assay in mice; assay type: in vivo, mouse
Procedure: (§5) Control animals received one i.c.v. injection of saline (2 μl/mouse). Each point represents the mean±s.e.m. of at least 4 experiments.
1) tail withdrawal assay, according to the experimental protocols described by Calò et al., (Br J Pharmacol 125, 373-378, 1998) and Rizzi et al. (Clin Pharmacol 18, 56, 2004);

[6] = Metabolic stability in mouse plasma; assay type: in vitro ADME
Procedure: as §1, §2, §3, §4

[7] = biological target: T4, human recombinant opioid receptor delta (DOP) (Homo sapiens, UniProt P41143); assay: Receptor binding on CHO membranes, [3H]-Diprenorphine; conditions: Table 3; CHO cells; [3H]-Diprenorphine
T4 construct: expressed in transfected cells; host or cells: CHO cells, membranes

mice [8] = assay: Spontaneous locomotor activity in mice; assay type: in vivo, mouse
Procedure: as §5
3) assay for measurement of spontaneous locomotor activity, as described by Rizzi et al., (Naunyn Schmiedebergs Arch Pharmacol 363, 161-165, 2001.

mice [9] = assay: Food intake in fed mice; assay type: in vivo, mouse
Excerpt: 2) measurement of food intake in fed animals, as described by Rizzi et al. (National Congress of the Italian Society of Neuroscience and joint Italian-Swedish Neuroscience Meetings, Ischia (Napoli) 1-4 Oct. 2005);

[10] = test system: vas deferens of knockout mice for the NOP receptor (NOP−/−); assay: Electrically stimulated vas deferens from NOP receptor knockout mice; assay type: cell-based, mouse
[11] = biological target: T1, human recombinant NOP receptor; assay: Receptor binding, displacement of tritiated N/OFQ on CHOhNOP membranes
[12] = Table 2, wild type (NOP+/+) mice

T1 sequence (P41146 whole entry): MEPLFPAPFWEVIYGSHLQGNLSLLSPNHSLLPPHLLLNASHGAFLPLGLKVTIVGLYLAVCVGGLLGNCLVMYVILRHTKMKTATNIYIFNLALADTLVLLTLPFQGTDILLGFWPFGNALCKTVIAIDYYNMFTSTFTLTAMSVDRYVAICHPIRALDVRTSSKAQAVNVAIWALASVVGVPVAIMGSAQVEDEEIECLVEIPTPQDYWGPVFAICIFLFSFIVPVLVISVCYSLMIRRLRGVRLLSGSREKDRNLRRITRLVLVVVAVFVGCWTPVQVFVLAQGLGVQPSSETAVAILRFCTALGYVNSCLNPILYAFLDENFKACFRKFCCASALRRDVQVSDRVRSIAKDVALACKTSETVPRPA
T2 sequence (P35372 whole entry): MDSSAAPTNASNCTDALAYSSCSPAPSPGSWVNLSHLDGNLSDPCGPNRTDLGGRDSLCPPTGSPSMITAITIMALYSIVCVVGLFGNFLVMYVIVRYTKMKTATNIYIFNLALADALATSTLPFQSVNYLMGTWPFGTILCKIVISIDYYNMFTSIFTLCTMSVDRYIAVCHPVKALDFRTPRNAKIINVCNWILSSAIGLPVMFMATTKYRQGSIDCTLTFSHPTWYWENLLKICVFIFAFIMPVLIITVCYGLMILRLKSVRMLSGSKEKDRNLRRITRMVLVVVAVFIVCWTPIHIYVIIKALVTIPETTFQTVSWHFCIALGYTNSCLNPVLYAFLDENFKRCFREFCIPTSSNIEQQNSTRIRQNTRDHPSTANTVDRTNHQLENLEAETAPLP
T4 sequence (P41143 whole entry): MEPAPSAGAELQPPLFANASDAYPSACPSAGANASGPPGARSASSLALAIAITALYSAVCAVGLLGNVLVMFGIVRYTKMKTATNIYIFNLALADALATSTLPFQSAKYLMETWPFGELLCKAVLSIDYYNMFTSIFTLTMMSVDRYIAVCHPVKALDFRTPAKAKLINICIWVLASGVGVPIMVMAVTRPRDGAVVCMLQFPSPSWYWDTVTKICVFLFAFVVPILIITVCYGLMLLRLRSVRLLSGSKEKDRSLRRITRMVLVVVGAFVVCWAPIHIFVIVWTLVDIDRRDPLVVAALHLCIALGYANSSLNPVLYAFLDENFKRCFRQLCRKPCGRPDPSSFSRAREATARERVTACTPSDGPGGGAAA
T3 sequence (P41145 whole entry): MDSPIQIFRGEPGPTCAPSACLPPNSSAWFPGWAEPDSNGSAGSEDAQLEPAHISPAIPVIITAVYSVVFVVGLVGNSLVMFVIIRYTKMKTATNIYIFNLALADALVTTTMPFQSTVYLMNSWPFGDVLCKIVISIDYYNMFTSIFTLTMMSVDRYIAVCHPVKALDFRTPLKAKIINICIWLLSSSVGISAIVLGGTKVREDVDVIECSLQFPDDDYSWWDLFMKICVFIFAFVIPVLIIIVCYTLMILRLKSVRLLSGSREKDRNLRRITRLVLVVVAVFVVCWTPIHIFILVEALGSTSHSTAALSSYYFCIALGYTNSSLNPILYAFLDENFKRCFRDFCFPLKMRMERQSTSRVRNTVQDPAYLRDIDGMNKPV

In the case of `C[C@H](NC(=O)[C@H](CO)NC(=O)[C@H](CCCCN)NC(=O)[C@H](CCCNC(=N)N)NC(=O)C(C)(C)NC(=O)CNC(=O)[C@@H](NC(=O)[C@H](Cc1ccc(F)cc1)NC(=O)CNC(=O)CNC(=O)[C@@H](N)Cc1ccccc1)[C@@H](C)O)C(=O)N[C@@H](CCCNC(=N)N)C(=O)N[C@@H](CCCCN)C(=O)N[C@@H](CCCNC(=N)N)C(=O)N[C@@H](CCCCN)C(=O)N[C@@H](CC(N)=O)C(=O)N[C@@H](CCC(N)=O)C(N)=O` [UFP-112, [(pF)Phe^4,Aib^7,Arg^14,Lys^15]N/OFQ-NH2], the “Stimulation upon binding GTP?S, Agonist pEC50” value ([1]; Table 1, membrane of CHOhNOP cells) is reported as 10.55, the Emax ([1]; read-out: Stimulation upon binding GTP?S, Agonist Emax) is reported as 118 ± 9% and the “pKi MOP” value [2] is reported as 7.13. The “pKi KOP” value [3] was 8.36, the “Inhibition of the twitch induced by electric stimulation, Agonist Emax” value (mouse vas deferens; Table 1) was −85 ± 2% and the “Inhibition of the twitch induced by electric stimulation, Agonist pEC50” value (mouse vas deferens; Table 1) was 9.48. For the same compound, the “Emax NOP+/+” value (mouse vas deferens; [12]) was 93 ± 3%, the “pEC50 NOP+/+” value (mouse vas deferens; [12]) was 8.94 and the “Kinetics of action and reversibility of the effects after washing” value (mouse vas deferens; compared with N/OFQ, equi-effective concentrations) was “much slower”. For the same compound, the “Increase in potency compared to the reference sequence” value (mouse vas deferens; mouse vas deferens) was “more than 100 fold”, the “Action in the mouse vas deferens in presence of naloxone” value (mouse vas deferens; naloxone present) was “not modified” and the half-life at 6 μg/μl [4] was 11.3 ± 1.4 min. The “Effect in tail withdrawal assay, i.c.v.” value (mice [5]; 0.001-0.1 nmol, intracerebroventricular) was “pronociceptive effects”, the “Effect in tail withdrawal assay, i.t.” value (mice [5]; 0.001-0.1 nmol, intrathecal) was “antinociceptive effects” and the “Tail withdrawal effects in NOP−/− mice” value (mice [5]; NOP−/− mice) was “absent”. For the same compound, the “Duration of action in tail withdrawal test” value (mice [5]; equi-effective doses) was > 120 min, the “Potency in vivo relative to N/OFQ” value (mice [5]; stated for each in vivo assay (tail withdrawal, food intake, locomotor activity)) was “about 100 fold” and the half-life at 6 μg/μl ([6]; male, Swiss, mouse, plasma, pH 7.4, mouse plasma, 37° C., mean±standard deviation, read-out: T½ Plasma) was 167 ± 9 min. For the same compound, the “Plasma T½ compared to N/OFQ” value ([6]; mouse plasma) was “almost three-fold longer”, the “pKi DOP” value [7] was 6.37 and the “Time after which locomotor effect ended” value (mice [8]; 0.1 nmol i.c.v.) was “about 6 h”. The “Effect on spontaneous locomotor activity” value (mice [8]; i.c.v., N/OFQ 10 nmol, UFP-112 0.1 nmol) was “inhibited the locomotor activity”, the “Hyperphagic effects in NOP−/− mice” value (mice [9]; NOP−/− mice) was “absent” and the “Potency relative to N/OFQ in food intake” value (mice [9]; fed mice) was 100 fold. For the same compound, the “Effect on food intake” value (mice [9]; fed mice, equi-effective doses) was “significant increase”, the “Inhibitory effect on the contraction induced by electrical stimulation in NOP−/− vas deferens” value [10] was “disappeared” and the “pEC50 NOP−/−” value ([10]; Table 2) was <6. For the same compound, the “Receptor binding PKi” value ([11]; Table 1, membrane of CHOhNOP cells, tritiated N/OFQ) was 10.55 and the “pKi NOP” value ([11]; Table 3, CHO cells, [3H]N/OFQ) was 10.55.

Source: patent US8227414B2 ([…].R.L., priority 2005, dated 2012)
